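Briefly, cells in 96-well plates were exposed to five compound concentrations for 48 h, and endpoints were estimated by linear interpolation. TGI denotes the concentration required for complete inhibition of growth.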
Key:
Assay in all cases: inhibition of tumour cell growth, NCI panel, 48 h
CAKI-1 renal = system: CAKI-1 renal
SK-MEL-5 melanoma = system: SK-MEL-5 melanoma
KM12 colon = system: KM12 colon
NCI-H23 lung = system: NCI-H23 lung
SNB-75 CNS = system: SNB-75 CNS
MALME-3M melanoma = system: MALME-3M melanoma
UO-31 renal = system: UO-31 renal
SF-539 CNS = system: SF-539 CNS
UACC-257 melanoma = system: UACC-257 melanoma
K-562 leukemia = system: K-562 leukemia
IGROV1 ovarian = system: IGROV1 ovarian
MDA-MB-435 = system: MDA-MB-435
HCT-116 colon = system: HCT-116 colon
MCF7 breast = system: MCF7 breast
HL-60(TB) leukemia = system: HL-60(TB) leukemia
A498 renal = system: A498 renal
SK-OV-3 ovarian = system: SK-OV-3 ovarian
SR leukemia = system: SR leukemia
T-47D breast = system: T-47D breast

SMILES | TGI (CAKI-1 renal) [µM] | TGI (SK-MEL-5 melanoma) [µM] | TGI (KM12 colon) [µM] | TGI (NCI-H23 lung) [µM] | TGI (SNB-75 CNS) [µM] | TGI (MALME-3M melanoma) [µM] | TGI (UO-31 renal) [µM] | TGI (SF-539 CNS) [µM] | TGI (UACC-257 melanoma) [µM] | TGI (K-562 leukemia) [µM] | TGI (IGROV1 ovarian) [µM] | TGI (MDA-MB-435) [µM] | TGI (HCT-116 colon) [µM] | TGI (MCF7 breast) [µM] | TGI (HL-60(TB) leukemia) [µM] | TGI (A498 renal) [µM] | TGI (SK-OV-3 ovarian) [µM] | TGI (SR leukemia) [µM] | TGI (T-47D breast) [µM]
[O-][N+]1=NC(c2ccccc2)=C1c1ccccc1 | > 50 | > 50 | > 50 | > 50 | > 50 | > 50 | > 50 | > 50 | > 50 | > 50 | > 50 | > 50 | > 50 | > 50 | > 50 | > 50 | > 50 | – | –
CCN(CC)c1ccc2cc(-c3nnc(-c4ccccc4O)o3)c(=O)oc2c1 | 25.3 | 25.2 | 37.8 | 24.8 | – | 33.6 | 22.7 | 22.4 | 35.1 | > 100 | 13.9 | 32.7 | 21.9 | > 100 | 22.7 | 29.6 | > 100 | 33.7 | –
CC(C)(C)OC(=O)c1ccc(NCC2=CC(=O)C=CC2=O)cc1 | 3.39 | 29 | 29.6 | 22.2 | 24.3 | 9.82 | 19.7 | 12.7 | 24.9 | > 100 | 23.9 | 25.9 | 26.2 | 12.3 | 3.29 | 30.9 | 41.6 | > 23.1 | –
C[C@@H]1C2=CC[C@@]3(C)C(CCC3[C@H](C)[C@H]3C[C@@]4(C)O[C@@](c5cccnc5)(O3)OC4(C)C)[C@@H]2C2OC2[C@@]12CCC(=O)O2 (some centres not stated) | 79.6 | 78.1 | > 100 | > 100 | > 100 | 92.7 | 97.1 | > 100 | > 100 | > 100 | > 100 | – | > 100 | – | 41.4 | > 100 | > 100 | > 100 | –
NCCCCC(=O)c1cccnc1 | > 100 | > 100 | > 100 | > 100 | – | > 100 | > 100 | > 100 | > 100 | > 100 | > 100 | – | > 100 | – | > 100 | > 100 | > 100 | > 100 | –
Cc1cc(=O)[nH]c(NNC(C#N)c2c(O)ccc3ccccc23)n1 (configuration not stated) | 22 | 13 | 17.3 | 20.5 | 55.9 | 26.8 | 9.92 | 13.7 | 19.8 | > 100 | 23.4 | – | 17.1 | – | 8.27 | – | 52.6 | 26.3 | –
CCOC(=O)[C@H]1Nc2ccc([N+](=O)[O-])cc2C2c3ccccc3CC21 (some centres not stated) | > 100 | 30.7 | > 100 | 73.6 | > 100 | 68 | 44 | 31.8 | 40.2 | 52.2 | > 100 | – | 37.9 | – | – | – | – | > 100 | –
COc1ccc2c(c1)CC1c3c(ccc(OC)c3O)CC2N1C (configuration not stated) | > 100 | 32.7 | > 89.8 | > 100 | > 100 | 29.4 | > 100 | 54.6 | 50.6 | 58.9 | > 100 | – | 47.3 | – | 40.3 | > 100 | > 100 | 45.4 | –
O=S(=O)([O-])[O-].[Cl-].[NH2-].[NH2-].[NH2-].[NH2-].[Ru+3].c1ccncc1 | > 100 | > 100 | > 100 | > 100 | > 100 | > 100 | > 100 | > 100 | > 100 | > 100 | > 100 | – | > 100 | – | > 100 | > 100 | > 100 | > 100 | –
N#Cc1nc(-c2ccccn2)oc1N | > 100 | > 100 | > 100 | > 100 | – | > 100 | > 100 | – | > 100 | > 100 | > 100 | > 100 | > 100 | > 100 | > 100 | > 100 | > 100 | > 100 | –
NC(=O)N/N=C(/Cc1nc2ccc(C(=O)c3ccccc3)cc2[nH]c1=O)C(=O)Nc1ccc(C(F)(F)F)cc1[N+](=O)[O-] | > 100 | > 100 | > 100 | > 100 | 97.3 | > 100 | > 100 | > 100 | > 100 | > 100 | > 100 | – | > 100 | – | > 100 | > 100 | > 100 | > 100 | –
CCN(CC)CCCNc1nc(=O)[nH]c(C)c1C(=O)Nc1ccc2c(c1)c1ccccc1n2CC | > 100 | > 100 | > 100 | > 100 | > 100 | > 100 | > 100 | > 100 | > 100 | > 100 | > 100 | > 100 | > 100 | > 100 | > 100 | – | > 100 | – | > 100
O=C(CN1CCOCC1)c1ccc2c(c1)oc(=O)n2CCN1CCCC1 | > 100 | > 100 | > 100 | > 100 | > 100 | > 100 | – | > 100 | > 100 | > 100 | > 100 | > 100 | > 100 | > 100 | > 100 | > 100 | > 100 | > 100 | –
CC1(S)CC2C(CC1Sc1ccccc1)C2(C)C (configuration not stated) | – | > 100 | > 100 | > 100 | > 100 | > 100 | > 100 | > 100 | > 100 | > 100 | > 100 | – | > 100 | – | > 100 | – | > 100 | – | –
CC1(C)OCC([C@H]2CC23SCCCS3)O1 (some centres not stated) | > 100 | > 100 | > 100 | > 100 | > 100 | > 100 | > 100 | > 100 | > 100 | > 100 | > 100 | – | > 100 | – | > 100 | > 100 | > 100 | > 100 | –
O=[N+]([O-])C(=C1Nc2ccccc2N1)/C(Cl)=C(/Cl)N1CCOCC1 | > 100 | – | > 100 | > 100 | > 100 | > 100 | > 100 | > 100 | > 100 | > 100 | – | > 100 | > 100 | > 100 | – | > 100 | > 100 | – | 51.2
N#Cc1c(O)cc(=O)n2c1[nH]c1ccccc12 | > 100 | > 100 | > 100 | > 100 | > 100 | > 100 | > 100 | > 100 | > 100 | > 100 | > 100 | > 100 | > 100 | > 100 | > 100 | > 100 | > 100 | > 100 | –
O=[N+]([O-])/C(C(Cl)=C(Cl)Cl)=C(\Nc1ccccc1)n1nnc2ccccc21 | > 100 | – | 48 | 61.2 | > 100 | > 100 | 48.9 | > 100 | > 100 | > 100 | – | 86.5 | > 100 | > 100 | – | > 100 | > 100 | – | > 100
COc1ccc(/C=C/C(=O)CC(=O)/C=C/c2ccc(OC)cc2)cc1 | > 100 | > 100 | > 100 | 95.1 | > 100 | > 100 | > 100 | 78.7 | > 100 | > 100 | > 100 | > 100 | 34.5 | > 100 | 64.5 | – | > 100 | – | > 100
Cc1cnc2c(c1)C(=O)C1=C(OC(C)(C)CC1O)C2=O (configuration not stated) | – | 26.9 | > 100 | 26.2 | 28.5 | 27.6 | 29.7 | 31.4 | 27 | 46.4 | 28.9 | – | 27.9 | – | 26.3 | – | 36.5 | > 100 | –
CC(=O)C(CN(C)C)C(c1ccccc1)c1c(O)c2ccccc2oc1=O (configuration not stated) | > 100 | > 100 | > 100 | > 100 | 88.5 | > 100 | – | > 100 | > 100 | > 100 | > 100 | – | > 100 | – | > 100 | – | > 100 | > 100 | –
O=S(=O)(c1ccccc1)n1cc(C[P+](c2ccccc2)(c2ccccc2)c2ccccc2)c2ccccc21 | 26.9 | 3.29 | 13.1 | 17.8 | 12.6 | 14.7 | 13.1 | 16.8 | – | 14.2 | 16 | – | 15.2 | – | 6.84 | 30 | 7.86 | 31.6 | –
Cc1c(N/C=C(\C#N)C(=O)c2ccc(Cl)cc2)c(=O)n(-c2ccccc2)n1C | > 100 | > 100 | > 100 | > 100 | > 100 | > 100 | > 100 | > 100 | > 100 | > 100 | > 100 | > 100 | > 100 | > 100 | > 100 | > 100 | > 100 | – | –
CNS(=O)(=O)NN(C)S(=O)(=O)c1ccc2ccccc2c1 | > 100 | > 100 | > 100 | > 100 | > 100 | > 100 | > 100 | > 100 | > 100 | > 100 | > 100 | – | > 100 | – | > 100 | > 100 | > 100 | > 100 | –
O=C(Nc1cc(Cl)cc(Cl)c1)/C(Cc1nc2ccccc2[nH]c1=O)=N/NC(=O)c1ccncc1 | > 100 | > 100 | > 100 | – | – | > 100 | > 100 | > 100 | > 100 | > 100 | > 100 | – | > 100 | – | > 100 | > 100 | > 100 | – | –
CCCCCCCCCCCCCCCC(=O)OCC1OC(OC)C2NP(=O)(N(CCCl)CCCl)OC1C2O (configuration not stated) | 10.5 | 38 | 41.9 | 6.76 | 15.2 | 34.1 | 35.1 | 7.29 | 42.9 | 24 | > 54.9 | 21.7 | 11.5 | 20.5 | 4.48 | 34.7 | 56.1 | 1.78 | –
CO[C@@H]1C[C@H]2N3CC[C@@]2(c2cc4c(cc2C3)OCO4)[C@H]2O[C@@H]12 | > 100 | 0.303 | > 100 | > 100 | > 100 | > 100 | > 100 | 2.88 | > 100 | > 100 | > 100 | > 100 | > 100 | > 100 | > 100 | > 100 | > 100 | – | –
CCCCN[C@H]1C2C3CC4C5CC(C42)C1(C)C53 (some centres not stated) | > 100 | > 100 | > 100 | – | > 100 | > 100 | > 100 | > 100 | > 100 | > 100 | > 100 | – | > 100 | – | > 100 | > 100 | > 100 | > 100 | –

Reference: PubChem BioAssay (NCI)
